Experimental data reported in patent publication US9072729B2, “Method for treating fibrosis and cancer with imidazolium and imidazolinium compounds” (Agency for Science, Technology and Research, priority 2008, dated 2015).

Tests used:
TGF-β1 = assay: Real-time RT-PCR of TGF-β1 mRNA in HSC T6 cells; type: cell-based, rat; details: 48 h
Procedure: (§1) FIG. 9. DBZIM and TDBZIM suppressed TGF-β1 mRNA. HSC T6 cells were incubated with (a) DBZIM (1, 10, 100 and 300 μM) and (b) TDBZIM (1, 10 and 100 μM) for 48 h for the dosage-dependent study, and (c) with DBZIM (100 μM) and TDBZIM (100 μM) for 8, 24 and 48 h for the time-dependent study. The expression level of TGF-β1 mRNA was quantified with real-time RT-PCR. The data were presented as mean and SEM, N=6, *^aP<0.05, *^bP<0.01, *^cP<0.005, when compared to vehicle control.
(§2) Total RNA was isolated using NucleoSpin RNAII isolation kit (Nacherey & Nagel, Germany), and quantified by ND-100 spectrophotometer (Nanodrop Technologies, DE, USA). The details of real-time RT-PCR were reported elsewhere (Zhang et al. 2006). Briefly, it was a two-step real-time RT-PCR using Taqman chemistry. Total RNA was first reverse transcribed to cDNA, and real-time PCR was run and detected in ABI 7500 Fast Real-Time PCR System (Applied Biosystems, CA, USA). Primers and probes for rat GFAP, SMAA, collagen Ia1, fibronectin, TGF-β1, TGF-β receptor I (TGFβ RI) and IL-6 were ordered from Taqman's assay-on-demand database. Rat β-actin was used as normalization gene, and its expression level was constant (CT difference was <±0.5) throughout the experimental settings in this study. Relative quantification of target mRNA was calculated using comparative threshold cycle method (ΔΔCT) as described in User Bulletin #2 (ABI Prism 7700 Sequence Detection System). Relative quantification was given by 2^−ΔΔCT to express the up-regulation or down regulation of the target gene under the treatments compared to the control.

[1] = system: col1a1, fibronectin, GFAP, SMAA, TGF-β1, TGFβ RI protein expression; assay: Western blotting of fibrotic marker proteins in HSC T6 cells; type: cell-based, rat; details: DBZIM 100 μM, TDBZIM 50 μM, 48 h
Procedure: FIG. 8. […] The target proteins were recognized by the respective antibodies, and visualized by the ECL method. The membrane was stripped and re-probed for α-tubulin as the loading control. FIG. 13. […] DPIM (2 mM), EGCG (25 μM) and DBZIM (100 μM) were dissolved in H2O. Alpha-tubulin was used as the loading control. Densitometric measurement of protein band intensity was normalized against the respective vehicle control. (B) Relative densitometric quantification of protein band intensity. The vehicle treated sample was normalized to 1. Protein extracts were prepared by lysing a cell pellet in 10 volumes of boiled 1% sodium dodecyl sulfate (SDS) (90-95° C.) for 10 min for GFAP, or using NE-PER nuclear and cytoplasmic extraction reagents from Pierce (IL, USA) for nuclear proteins, or RIPA (Pierce, Ill., USA) for SMAA, fibronectin, collagen αI(I), TGF-β1 and TGFβ RI. Protein content was quantified using a BCA kit (Pierce, Ill., USA). 15 μg of total protein were resolved in 4-12% gradient SDS/polyacrylamide gel electrophoresis (PAGE) gel, and transferred to a nitrocellular membrane. The membrane was then probed with primary antibodies against GFAP (Dako, Denmark), SMAA (Sigma, USA), procollagen αI(I), fibronectin, c-Jun, c-Fos, JunB, JunD, […] Cruz Biotechnology, CA, USA), NF-κB P65, TGF-β1 and TGFβ RI (Abeam, UK), and detected by horseradish peroxidase-conjugated secondary antibody (Santa Cruz Biotechnology, CA, USA). […] Protein bands were recorded on X-ray film by reacting with ECL chemiluminescence reagents (Amersham Biosciences, NJ, USA). Alpha-tubulin (Abeam, UK) was used as the loading control for total protein, and Tata binding protein (TBP) (Abeam, UK) was used as the loading control for nuclear protein.

IL-6 = assay: Real-time RT-PCR of IL-6 mRNA in HSC T6 cells; type: cell-based, rat; details: for inhibition of IL-6 transcription: 48 h
Procedure: as §1, with “10.” for “9.”, “IL-6” for “TGF-β1”, “with” for “with (a)”, “N=6,” for “N=6, *^aP<0.05,”, “*^cP<0.005, and *^dP<0.0005,” for “*^cP<0.005,”, “to the” for “to”
as §2

HLE cells = assay: Growth inhibition assay (MTT), HLE; type: cell-based, human
Procedure: The effect of IMSs (IBN-15, IBN-19, IBN-24, IBN-25 and IBN-32) on the proliferative properties of p53 mutant cell line HLE was examined. The cytotoxicity activity and proliferation inhibition of IMSs in tumor cells were measured by MTT. […] The control experiments with DMSO alone (0.05% v/v) had no effect on cell proliferation. […] (Table 4) Microscopic observation on the cell cultures visually confirmed the inhibition on cell proliferation by IMSs. (FIG. 35)

Molecule	SMAA protein expression [1]	procollagen αI(I) and fibronectin protein expression [1]	inhibition of IL-6 transcription (IL-6; 1 μM)	inhibition of IL-6 transcription (IL-6; 10 μM)	inhibition of IL-6 transcription (IL-6; 100 μM)	other results
1,3,5-tris(4-methyl-imidazolium)-linked cyclophane.3Br [TDBZIM]	enhanced	attenuated procollagen αI(I) and fibronectin significantly	37%	55%	80%	inhibition of TGF-β1 mRNA (TGF-β1; regardless of dosage (1-100 μM)): ~23%; inhibition of IL-6 mRNA expression (IL-6; 100 μM, 24 h): 52%
[Br-].c1ccc(Cn2cc[n+](Cc3ccccc3)c2)cc1 [DBZIM, 1,3-bisbenzylimidazolium bromide]	suppressed	attenuated procollagen αI(I) and fibronectin significantly	37%	46%	53%	suppression of TGF-β1 mRNA (TGF-β1; 100 μM): 28%; suppression of TGF-β1 mRNA (TGF-β1; 300 μM): 33%; suppression of IL-6 mRNA (IL-6; 100 μM, shorter treatment than 48 h (8, 24 h)): did not show statistically significant suppression; inhibition of IL-6 transcription (IL-6; 300 μM): 59%
CC(=O)Oc1ccc(C[n+]2ccn(Cc3ccccc3)c2C)cc1.[Cl-] [IBN-19, 1-benzyl-3-(4-acetate-benzyl)-2-methyl-imidazolium chloride]	–	–	–	–	–	IC50 (HLE cells; 72 h): 90 µM; IC50 (HLE cells; 120 h): 28 µM
Cc1ccc(C[n+]2ccn(Cc3ccccc3)c2)cc1.[Cl-] [IBN-24, 1-benzyl-3-(4-methylbenzyl)-imidazolium chloride]	–	–	–	–	–	IC50 (HLE cells; Homo sapiens, 72 h): 90 µM; IC50 (HLE cells; Homo sapiens, 120 h): 30 µM
